Measurements from BigSolDB 2.1.

CCCCCc1ccc2c(c1)C(=O)c1ccccc1C2=O
solubility (mole fraction)
Settings | 288.15 K | 293.15 K | 298.15 K | 303.15 K | 308.15 K | 313.15 K | 318.15 K | 323.15 K
in 2-butanone | 0.0341 | 0.0431 | 0.0513 | 0.0587 | 0.0683 | 0.0828 | 0.105 | 0.129
in MIBK | 0.0433 | 0.0539 | 0.0601 | 0.0676 | 0.0744 | 0.0836 | 0.104 | 0.126
in acetone | 0.0225 | 0.0299 | 0.0376 | 0.0443 | 0.0517 | – | 0.0815 | 0.105
in acetonitrile | 0.00299 | 0.00478 | 0.00811 | 0.0127 | 0.0203 | – | 0.051 | 0.0786
in ethanol | 0.0029 | 0.00392 | 0.00531 | 0.00725 | 0.00988 | 0.0145 | 0.0195 | 0.0265
in ethyl acetate | 0.0501 | 0.0583 | 0.0663 | 0.0761 | 0.088 | 0.101 | 0.12 | 0.151
in isopropyl acetate | 0.0522 | 0.0598 | 0.0708 | 0.0842 | 0.0974 | 0.114 | 0.137 | 0.163
in methanol | 0.00131 | 0.00199 | 0.00271 | 0.00364 | 0.00502 | 0.00682 | 0.00928 | 0.0131
in n-butanol | 0.00826 | 0.0111 | 0.0154 | 0.021 | 0.0275 | 0.0346 | 0.0446 | 0.0626
in n-propanol | 0.00541 | 0.00743 | 0.0102 | 0.0144 | 0.02 | 0.0265 | 0.0346 | 0.049
in sec-butanol | 0.00259 | 0.00378 | 0.0056 | 0.00842 | 0.012 | 0.0182 | 0.0257 | 0.0388
